In general, Vmax refers to the rate approached at saturating substrate.

For the test, the target named is T1, PRDX1 (Homo sapiens, UniProt Q06830).
T1 sequence (Q06830 1-199): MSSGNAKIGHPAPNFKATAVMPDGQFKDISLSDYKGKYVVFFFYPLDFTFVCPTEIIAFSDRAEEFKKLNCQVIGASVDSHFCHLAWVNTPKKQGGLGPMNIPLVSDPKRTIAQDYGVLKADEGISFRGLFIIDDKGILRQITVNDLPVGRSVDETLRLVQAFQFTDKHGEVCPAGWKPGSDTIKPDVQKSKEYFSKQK
As to the kind of experiment: Kinetics studies of PRDX1 inhibition. Format: biochemical. The note with it: mean ± SD, n = 3. On the procedure:
The PRDX1 protein (0.5 nM) was incubated with varying concentrations of the CP1 (0, 0.6, 1.5, and 3.8 nM) at room temperature for 1 h. Subsequently, the Trx/TrxR/NADPH mixture was added and the enzymatic reaction was initiated by the addition of different concentrations of H2O2 (5–1,000 μM). The absorbance changes at 340 nm were monitored in real-time using a microplate reader. Kinetic parameters, including the Michaelis constant (Km), maximum reaction rate (Vmax), and α value, were determined by fitting the data to the Michaelis-Menten equation.

On to `CC1=C(CC(=O)/C=C/c2cccc(CO)c2)C(=O)C=C2C1=CC=C1[C@@]2(C)CC[C@@]2(C)C3C[C@](C)(C(=O)CCc4nc(C(O)C(O)O)c(C)nc4C)CC[C@]3(C)CC[C@]12C` (stereo partly drawn) [CP1], for which the maximum rate (Vmax) (CP1 concentration 0.6 nM) amounted to 56.2 ± 1.94 M/s, the “Vmax” value (CP1 concentration 1.5 nM) is 40.7 ± 2.42 M/s and the “Vmax” value (CP1 concentration 3.8 nM) was determined as 26.8 ± 1.07 M/s.
